Converted amounts (≈) assume the structure as drawn.

For orientation: thermodynamic solubility means the concentration in solution at equilibrium with solid. In general, EC50 refers to the concentration at which the effect is half-maximal.

One data set can be described thus: in vitro. Particulars: human; for CC50 at 5 days: uninfected MT-4 cells.
The nature of a further data set: physchem. Particulars: 23 °C, thermodynamic from solid; for solubility thermodynamic at 24 h: FaSSIF.
A further data set has as its system HIV-1 (IIIB). In words: microbe, parasite or virus in culture. To be noted: Human immunodeficiency virus 1, MT4, 120 h; HIV-1 (IIIB) replication in MT-4 cells, 5 days, Cell Titer Glo; read-out: MT4 EC50. In kind it is cell-based.

Molecule `CC1=NO[C@@]2(CC[C@H](C)N3C[C@H]2n2cc(C(=O)NCc4ccc(F)cc4F)c(=O)c(OC(=O)OCC[N+](C)(C)C)c2C3=O)C1` [Compound 16, 2-(((((3′S,5S,7′R)-10′-((2,4-difluorobenzyl)carbamoyl)-3,3′-dimethyl-1′,11′-dioxo-1′,4′,5′,11′-tetrahydro-3′H,4H,7′H-spiro[isoxazole-5,6′-[2,7]methanopyrido[1,2-a][1,4]diazonin]-12′-yl)oxy)carbonyl)oxy)-N,N,N-trimethylethan-1-aminium trifluoroacetic acid] yielded a CC50 at 5 days in the data set “in vitro” of 14.1 µM. This molecule displayed a solubility (thermodynamic) at 24 h in the data set “physchem” of 2230 µg/mL.

On to `CC1=NO[C@@]2(CC[C@H](C)N3C[C@H]2n2cc(C(=O)NCc4ccc(F)cc4F)c(=O)c(OCOC(=O)N(CCOP(=O)(O)O)CC(=O)O)c2C3=O)C1` [Compound 46, N-(((((3′S,5S,7′R)-10′-((2,4-difluorobenzyl)carbamoyl)-3,3′-dimethyl-1′,11′-dioxo-1′,4′,5′,11′-tetrahydro-3′H,4H,7′H-spiro[isoxazole-5,6′-[2,7]methanopyrido[1,2-a][1,4]diazonin]-12′-yl)oxy)methoxy)carbonyl)-N-(2-(phosphonooxy)ethyl)glycine], for which, in the data set “in vitro”, the CC50 at 5 days is 50 µM. This molecule gave a thermodynamic solubility at 24 h in “physchem” of 4980 µg/mL (≈ 6.72 mM).

As to `CC1=NO[C@@]2(CC[C@H](C)N3C[C@H]2n2cc(C(=O)NCc4ccc(F)cc4F)c(=O)c(OCOC(=O)OC(C)(C)C(C)OP(=O)(O)O)c2C3=O)C1` (stereo partly drawn) [Compound 55, (((3′S,5S,7′R)-10′-((2,4-difluorobenzyl)carbamoyl)-3,3′-dimethyl-1′,11′-dioxo-1′,4′,5′,11′-tetrahydro-3′H,4H,7′H-spiro[isoxazole-5,6′-[2,7]methanopyrido[1,2-a][1,4]diazonin]-12′-yl)oxy)methyl (2-methyl-3-(phosphonooxy)butan-2-yl) carbonate], the solubility (thermodynamic) at 24 h in the data set “physchem” came to 4600 µg/mL (≈ 6.33 mM).

`CC1=NO[C@@]2(CC[C@H](C)N3C[C@H]2n2cc(C(=O)NCc4ccc(F)cc4F)c(=O)c(OCOC(=O)OCCCCOP(=O)(O)O)c2C3=O)C1` [Compound 34, (((3′S,5S,7′R)-10′-((2,4-difluorobenzyl)carbamoyl)-3,3′-dimethyl-1′,11′-dioxo-1′,4′,5′,11′-tetrahydro-3′H,4H,7′H-spiro[isoxazole-5,6′-[2,7]methanopyrido[1,2-a][1,4]diazonin]-12′-yl)oxy)methyl (4-(phosphonooxy)butyl) carbonate] came in with a CC50 in “in vitro” of 50 µM. The same molecule showed a thermodynamic solubility in the data set “physchem” (fassif) of 4890 µg/mL (≈ 6.86 mM).

In the data set “physchem”, `CC1=NO[C@@]2(CC[C@H](C)N3C[C@H]2n2cc(C(=O)NCc4ccc(F)cc4F)c(=O)c(OCOC(=O)OC(C)C(C)(C)OP(=O)(O)O)c2C3=O)C1` (stereo partly drawn) [Compound 56, (((3′S,5S,7′R)-10′-((2,4-difluorobenzyl)carbamoyl)-3,3′-dimethyl-1′,11′-dioxo-1′,4′,5′,11′-tetrahydro-3′H,4H,7′H-spiro[isoxazole-5,6′-[2,7]methanopyrido[1,2-a][1,4]diazonin]-12′-yl)oxy)methyl (3-methyl-3-(phosphonooxy)butan-2-yl) carbonate] showed a thermodynamic solubility at 24 h of 4240 µg/mL (≈ 5.84 mM).

For the molecule `CC1=NO[C@@]2(CC[C@H](C)N3C[C@H]2n2cc(C(=O)NCc4ccc(F)cc4F)c(=O)c(OCOC(=O)O[C@@H](C)C[C@H](C)OP(=O)(O)O)c2C3=O)C1` [Compound 30, (((3′S,5S,7′R)-10′-((2,4-difluorobenzyl)carbamoyl)-3,3′-dimethyl-1′,11′-dioxo-1′,4′,5′,11′-tetrahydro-3′H,4H,7′H-spiro[isoxazole-5,6′-[2,7]methanopyrido[1,2-a][1,4]diazonin]-12′-yl)oxy)methyl ((2S,4S)-4-(phosphonooxy)pentan-2-yl) carbonate], the EC50 with HIV-1 (IIIB) worked out at 0.00272 µM. This molecule also displayed a CC50 at 5 days in the data set “in vitro” of 10.3 µM.

The record behind these values is US20250120989A1, “BRIDGED TRICYCLIC CARBAMOYLPYRIDONE COMPOUNDS AND USES THEREOF” (priority 2023, published 2025).
